Test results reported in US5488060A, “Substituted thiadiazoles, compositions containing them and their use as antimicrobial and marine antifouling agents” (The Dow Chemical Company, priority 1994, dated 1996).
Values after ≈ are worked out from the molar mass of the structure shown. Like-named read-outs stand apart in the source and are kept apart here.

Assays:
Type in all cases: cell-based
Bacillus subtilis (Bs) = experiment: Minimum inhibitory concentration (MIC) in nutrient agar, Bacillus subtilis
Experimental: (§1) The antimicrobial activity of the compounds of the present invention is set forth as the minimum inhibitory concentration (MIC) for the active compounds and is determined for nine (9) bacteria, using nutrient agar, and seven (7) yeast and fungi, using malt yeast agar. This determination is conducted using a one percent solution of the test compound prepared in a mixture of acetone and water.
(§2) Nutrient agar is prepared at pH 6.8, representing a neutral medium, and at pH 8.2, representing an alkaline medium. The nutrient agars are prepared by adding 23 g of nutrient agar to one-liter of deionized water. In addition, the alkaline medium is prepared by adjusting a 0.04M solution of N-[tris-(hydroxymethyl)methyl]glycine buffered deionized water with concentrated sodium hydroxide to a pH of 8.5.
(§3) The test tubes containing the agar are cooled in a water bath until the temperature of the agar is 48° C. Then, an appropriate amount of the one percent solution of the test compound is added (except in the controls where no compound is added) to the respective test tubes so that the final concentrations are 500, […], 100, 50, 25, 10, 5, 2.5, 1.0 and zero parts per million of the test compound in the agar, thus having a known concentration of test compound dispersed therein. The contents of the test tubes are then transferred to respective petri plates. After drying for 24 hours, the petri plates containing nutrient agar are inoculated with bacteria and those containing malt yeast agar are inoculated with yeast and fungi.
(§4) The inoculation with bacteria is accomplished by using the following procedure. Twenty-four hour-cultures of each of the bacteria are prepared by incubating the respective bacteria in tubes containing nutrient broth for 24 hours at 30° C. in a shaker. Dilutions of each of the 24 hour-cultures are made so that nine separate suspensions (one for each of the nine test bacteria) are made, each containing 10^8 colony forming units (CFU) per mL of suspension of a particular bacteria. Aliquots of 0.3 mL of each of the bacterial suspensions are used to fill the individual wells of Steer's Replicator. For each microbial suspension, 0.3 mL was used to fill three wells (i.e., three wells of 0.3 mL each) so that for the nine different bacteria, 27 wells are filled. The Steer's Replicator is then used to inoculate both the neutral and alkaline pH nutrient agar petri plates.
(§5) The inoculated petri plates are incubated at 30° C. for 48 hours and then read to determine if the test compound which is incorporated into the agar prevented growth of the respective bacteria.

[1] = system: Enterobacter aerogenes (Ea); experiment: Minimum inhibitory concentration (MIC) in nutrient agar, Enterobacter aerogenes; settings: Klebsiella aerogenes, 48 h
Experimental: as §1, §2, §3, §4, §5

Escherichia coli (Ec) = experiment: Minimum inhibitory concentration (MIC) in nutrient agar, Escherichia coli; settings: 48 h
Experimental: as §1, §2, §3, §4, §5

[2] = system: Klebsiella pneumoniae (Kp); experiment: Minimum inhibitory concentration (MIC) in nutrient agar, Klebsiella pneumoniae
Experimental: as §1, §2, §3, §4, §5

Proteus vulgaris (Pv) = experiment: Minimum inhibitory concentration (MIC) in nutrient agar, Proteus vulgaris; settings: 48 h
Experimental: as §1, §2, §3, §4, §5

[3] = system: Pseudomonas aeruginosa (PRD-10); experiment: Minimum inhibitory concentration (MIC) in nutrient agar, Pseudomonas aeruginosa PRD-10; settings: 48 h
Experimental: as §1, §2, §3, §4, §5

[4] = system: Pseudomonas aeruginosa (Pa); experiment: Minimum inhibitory concentration (MIC) in nutrient agar, Pseudomonas aeruginosa
Experimental: as §1, §2, §3, §4, §5

[5] = system: Salmonella choleraesuis (Se); experiment: Minimum inhibitory concentration (MIC) in nutrient agar, Salmonella choleraesuis; settings: Salmonella enterica, 48 h
Experimental: as §1, §2, §3, §4, §5

[6] = system: Staphylococcus aureus (Sa); experiment: Minimum inhibitory concentration (MIC) in nutrient agar, Staphylococcus aureus
Experimental: as §1, §2, §3, §4, §5

Aspergillus niger (An) = experiment: Minimum inhibitory concentration (MIC) in malt yeast agar, Aspergillus niger
Experimental: as §1
(§6) Malt yeast agar is prepared at pH 5.5 by adding 3 g yeast extract and 45 g malt agar per liter of deionized water. The specific agar is dispensed in 30 mL aliquots into 25×200 mm test tubes, capped and autoclaved for 15 minutes at 115° C.
as §3
(§7) The inoculation with the yeast and fungi is accomplished as follows. Cultures of yeast and fungi are incubated for seven days on malt yeast agar at 30° C. These cultures are used to prepare suspensions by the following procedure. A suspension of each organism is prepared by adding 10 mL of sterile saline and 10 microliters of octylphenoxy polyethoxy ethanol to the agar slant of yeast or fungi. The sterile saline/octylphenoxy potyethoxy ethanol solution is then agitated with a sterile swab to suspend the microorganism grown on the slant. Each resulting suspension is diluted into sterile saline (1 part suspension: 9 parts sterile saline). Aliquots of these dilutions are placed in individual wells of Steer's Replicator and petri plates inoculated as previously described. The petri plates are incubated at 30° C. and read after 48 hours for yeast and 72 hours for fungi.

Candida albicans (Ca) = experiment: Minimum inhibitory concentration (MIC) in malt yeast agar, Candida albicans
Experimental: as §1, §6, §3, §7

[7] = system: Penicillium chrysogenum (Pc); experiment: Minimum inhibitory concentration (MIC) in malt yeast agar, Penicillium chrysogenum
Experimental: as §1, §6, §3, §7

[8] = system: Saccharomyces cerevisiae (Sc); experiment: Minimum inhibitory concentration (MIC) in malt yeast agar, Saccharomyces cerevisiae
Experimental: as §1, §6, §3, §7

Trichoderma viride (Tv) = experiment: Minimum inhibitory concentration (MIC) in malt yeast agar, Trichoderma viride
Experimental: as §1, §6, §3, §7

[9] = system: Aureobasidium pullulan (Ap); experiment: Minimum inhibitory concentration (MIC) in malt yeast agar, Aureobasidium pullulan
Experimental: as §1, §6, §3, §7

Fusarium oxysporum (Fo) = experiment: Minimum inhibitory concentration (MIC) in malt yeast agar, Fusarium oxysporum; settings: pH 5.5; malt yeast agar, 30° C., 72 hours for fungi; read-out: Minimum Inhibitory Concentration, Fo
Experimental: as §1, §6, §3, §7

[10] = 48 h, pH 8.2, read-out: Minimum Inhibitory Concentration, Bs
[11] = pH 6.8, nutrient agar, 30° C., 48 hours, read-out: Minimum Inhibitory Concentration, Bs
[12] = pH 6.8, read-out: Minimum Inhibitory Concentration, Ea
[13] = pH 8.2, read-out: Minimum Inhibitory Concentration, Ea
[14] = pH 6.8, read-out: Minimum Inhibitory Concentration, Ec
[15] = pH 8.2, read-out: Minimum Inhibitory Concentration, Ec
[16] = 48 h, pH 8.2, read-out: Minimum Inhibitory Concentration, Kp
[17] = pH 6.8, nutrient agar, 30° C., 48 hours, read-out: Minimum Inhibitory Concentration, Kp
[18] = pH 6.8, read-out: Minimum Inhibitory Concentration, Pv
[19] = pH 8.2, read-out: Minimum Inhibitory Concentration, Pv
[20] = pH 6.8, read-out: Minimum Inhibitory Concentration, PRD
[21] = pH 8.2, read-out: Minimum Inhibitory Concentration, PRD
[22] = pH 6.8, nutrient agar, 30° C., 48 hours, read-out: Minimum Inhibitory Concentration, Pa
[23] = pH 8.2, nutrient agar, 30° C., 48 hours, read-out: Minimum Inhibitory Concentration, Pa
[24] = pH 6.8, read-out: Minimum Inhibitory Concentration, SC
[25] = pH 8.2, read-out: Minimum Inhibitory Concentration, SC
[26] = pH 5.5, malt yeast agar, 30° C., 72 hours for fungi, read-out: Minimum Inhibitory Concentration, An
[27] = 72 h, pH 5.5, read-out: Minimum Inhibitory Concentration, PC
[28] = pH 5.5, malt yeast agar, 30° C., 48 hours for yeast, read-out: Minimum Inhibitory Concentration, SC
[29] = pH 5.5, malt yeast agar, 30° C., read-out: Minimum Inhibitory Concentration, Ap
[30] = 48 h, pH 8.2, read-out: Minimum Inhibitory Concentration, Sa
[31] = pH 6.8, nutrient agar, 30° C., 48 hours, read-out: Minimum Inhibitory Concentration, Sa
[32] = pH 5.5, malt yeast agar, 30° C., 48 hours for yeast, read-out: Minimum Inhibitory Concentration, Ca

Row | SMILES | MIC (Bacillus subtilis (Bs); [10]) [µg/mL] | MIC (Bacillus subtilis (Bs); [11]) [µg/mL] | MIC [1, 12] [µg/mL] | MIC [1, 13] [µg/mL] | MIC (Escherichia coli (Ec); [14]) [µg/mL] | MIC (Escherichia coli (Ec); [15]) [µg/mL] | MIC [2, 16] [µg/mL] | MIC [2, 17] [µg/mL] | MIC (Proteus vulgaris (Pv); [18]) [µg/mL] | MIC (Proteus vulgaris (Pv); [19]) [µg/mL] | MIC [3, 20] [µg/mL] | MIC [3, 21] [µg/mL] | MIC [4, 22] [µg/mL] | MIC [4, 23] [µg/mL] | MIC [5, 24] [µg/mL] | MIC [5, 25] [µg/mL] | MIC (Aspergillus niger (An); [26]) [µg/mL] | MIC [7, 27] [µg/mL] | MIC [8, 28] [µg/mL] | MIC [9, 29] [µg/mL] | also measured
1 | CSc1ccc(-c2nsnc2SC#N)cc1 [Example IX, 4-(4-Methylthiophenyl)-3-thiocyanato-1,2,5-thiadiazole] | 250 (≈ 942 µM) | < 10 | > 500 | 500 (≈ 1880 µM) | > 500 | 500 (≈ 1880 µM) | 500 (≈ 1880 µM) | > 500 | > 500 | 500 (≈ 1880 µM) | > 500 | 500 (≈ 1880 µM) | > 500 | 500 (≈ 1880 µM) | > 500 | 500 (≈ 1880 µM) | < 10 | < 10 | < 10 | < 10 | MIC ([6]; 48 h, pH 6.8, read-out: Minimum Inhibitory Concentration, Sa): 50 µg/mL (≈ 188 µM); MIC ([6]; pH 8.2, nutrient agar, 30° C., 48 hours, read-out: Minimum Inhibitory Concentration, Sa): 250 µg/mL (≈ 942 µM); MIC (Candida albicans (Ca); 48 h, pH 5.5, read-out: Minimum Inhibitory Concentration, Ca): 50 µg/mL (≈ 188 µM); MIC (Trichoderma viride (Tv); 72 h, pH 5.5, read-out: Minimum Inhibitory Concentration, Tv): < 10 µg/mL; MIC (Fusarium oxysporum (Fo)): < 10 µg/mL
2 | N#CSc1nsnc1-c1ccc(C(F)(F)F)cc1 [Example X, 4-(4-Trifluoromethylphenyl)-3-thiocyanato-1,2,5-thiadiazole] | 500 (≈ 1740 µM) | 25 (≈ 87 µM) | > 500 | 500 (≈ 1740 µM) | > 500 | 500 (≈ 1740 µM) | 500 (≈ 1740 µM) | > 500 | > 500 | 500 (≈ 1740 µM) | > 500 | 500 (≈ 1740 µM) | – | 500 (≈ 1740 µM) | > 500 | 500 (≈ 1740 µM) | 5 (≈ 17.4 µM) | – | – | – | MIC ([4]; 48 h, pH 6.8, read-out: Minimum Inhibitory Concentration, Pa): > 50 µg/mL; MIC [6, 30]: 500 µg/mL (≈ 1740 µM); MIC [6, 31]: > 500 µg/mL; MIC (Candida albicans (Ca); [32]): 5 µg/mL (≈ 17.4 µM); MIC ([7]; pH 5.5, malt yeast agar, 30° C., 72 hours for fungi, read-out: Minimum Inhibitory Concentration, PC): 5 µg/mL (≈ 17.4 µM); MIC ([8]; 48 h, pH 5.5, read-out: Minimum Inhibitory Concentration, SC): 2.5 µg/mL (≈ 8.7 µM); MIC (Trichoderma viride (Tv); pH 5.5, malt yeast agar, 30° C., 72 hours for fungi, read-out: Minimum Inhibitory Concentration, Tv): 2.5 µg/mL (≈ 8.7 µM); MIC ([9]; pH 5.5, read-out: Minimum Inhibitory Concentration, Ap): 2.5 µg/mL (≈ 8.7 µM)
3 | COC(=O)c1ccc(-c2nsnc2SC#N)cc1 [Example XII] | 500 (≈ 1800 µM) | 25 (≈ 90.1 µM) | 500 (≈ 1800 µM) | 500 (≈ 1800 µM) | 500 (≈ 1800 µM) | 500 (≈ 1800 µM) | 500 (≈ 1800 µM) | 500 (≈ 1800 µM) | 500 (≈ 1800 µM) | 500 (≈ 1800 µM) | 500 (≈ 1800 µM) | 500 (≈ 1800 µM) | 500 (≈ 1800 µM) | 500 (≈ 1800 µM) | 500 (≈ 1800 µM) | 500 (≈ 1800 µM) | – | 100 (≈ 361 µM) | 10 (≈ 36.1 µM) | 10 (≈ 36.1 µM) | MIC [6, 30]: 500 µg/mL (≈ 1800 µM); MIC [6, 31]: 500 µg/mL (≈ 1800 µM); MIC (Aspergillus niger (An); 72 h, pH 5.5, read-out: Minimum Inhibitory Concentration, An): 25 µg/mL (≈ 90.1 µM); MIC (Candida albicans (Ca); [32]): 10 µg/mL (≈ 36.1 µM); MIC (Fusarium oxysporum (Fo)): 10 µg/mL (≈ 36.1 µM)
